Results from patent US12194024B2, “Pharmaceutical composition of MDM2 inhibitor and use thereof for preventing and/or treating disease” (ASCENTAGE PHARMA (SUZHOU) CO., LTD., priority 2019, dated 2025).

Assays:
MOLM-13 cells = assay: Expression of proteins in treated MOLM-13 cells; format: cell-based, human; settings: for γ-H2AX expression (DNA damage): MOLM-13 cells
From the text: Therefore, we evaluate the protein changes involving these identified signaling pathways. […] DEC and AZA are low methylation drugs inducing low DNA methylation in cells by inhibiting the function of methyltransferase I (DNMT1). Many studies indicate that DNMT1 forms a complex with UHRF1 and HDAC1 proteins in tumor cells, which binds and inhibits the expression of various […] (such as P16INK4A, P14ARF and P21) promoters, and promotes tumor growth. Cytarabine is a pyrimidine nucleoside analogue, which induces DNA damage, further activates ATM/ATR-P53-P21 signal cascades, inhibits DNA synthesis in cells and interferes with cell proliferation.
Based on above evidences, we further detect the regulating effect of treatment with compound 2 in combination with low methylation drugs DEC and AZA or drug Ara-C on P53, demethylation marker protein DNMT1 and common target protein P21, and the expression of apoptosis marker protein, lytic PARP-1. […] RG-7388 is introduced as the comparison of present experiment. […] DNA damage further activates P53 and P21.
B-actin is used for confirming that the loaded proteins are the same. […] Its results represent three independent results.

[1] = test system: human MOLM-13 (AML) xenograft tumor; assay: Systemic MOLM-13 AML mouse xenograft model; format: in vivo, NOD SCID mice; settings: Compound 2 30 mg/kg q2d 21 days, Azacitidine 1.5 mg/kg qd seven days
From the text: The comparison among three or more groups uses one-way ANOVA. If the F value has a significant difference, multiple comparisons should be carried out after the ANOVA analysis. All data analysis uses SPSS 18.0. Prism (the sixth version) is used for graphing. Attune N×T flow cytometer (Thermo Fisher Scientific Inc.) is used for analyzing tumor infiltrating lymphocytes. Data acquisition and analysis use Analyst Software 1.6.3 work station (AB sciex, Ontario, Canada). For MOLM-13 systemic model, the death date of the last mouse is used for analyzing the median total survival and generating the Kaplan-Meier curve. Logarithmic rank test and Bonferroni multiple test are used for comparing the survival curves of different treatment groups.
For systemic AML model, six- to eight-week-old female NOD SCID mice are pretreated with cyclophosphamide (150 mg/kg, intraperitoneally) continuously for two days. Then the MOLM-13 systemic AML xenograft model is established by inoculating 1×10^7 cells into the caudal vein intravenously.
For systemic AML model, the six- to eight-week-old female NOD SCID mice are pretreated with cyclophosphamide (150 mg/kg, intraperitoneally) continuously for two days. Then the MOLM-13 systemic AML xenograft model is established by inoculating 1×10^7 cells into the caudal vein intravenously. Cells grow 3 days, then are randomly divided into groups for treatment of a single drug or drugs in combination using a carrier, compound 2 (50 mg/kg, is taken orally each day for 7 days), and Aza (1.5 mg/kg, intravenous injection each day for 7 days). In the treatment process and after the treatment is completed, the mice are monitored for the occurrence of hind leg paresis (HLP) or the abdominal swelling caused by disease progression, and a body weight loss >20%.
A systemic MOLM-13 mouse xenograft model is established, and the anti-leukemia effect of compound 2 following the administration regimen of 80 mg/kg dosage, orally (po), and once every two days (q2d) is evaluated in the model (corresponding to the number 57 regimen in table 7). The experiment has two groups, and 15 animals in each group, in one group, 5 animals are used for the analysis of the proportion of CD45+ AML cells, and the remaining 10 animals are used for recording the living condition of the mice. 18 days after the cell inoculation, according to the experimental regimen, 5 animals are selected randomly from each group, bone marrow and spleen are collected, the proportion of human CD45+ AML cells in bone marrow and spleen is analyzed using flow cytometry to evaluate the disease burden of animals.
Systemic tumor model is established by inoculating MOLM-13 tumor cells through caudal vein, the administration starts on the third day after the cell inoculation, and the day of the administration is defined as the first day. Compound 2 is administered following 30 mg/kg, q2d regimens for 21 days. Azacitidine is administered following 1.5 mg/kg, qd regimens for seven days (corresponding to the number 81 regimen in table 7). […]

[2] = test system: human OCI-AML-3 AML xenograft tumor; assay: Subcutaneous OCI-AML-3 AML mouse xenograft tumor model; format: in vivo, NOD SCID mice; settings: Compound 2 50 mg/kg orally q2d, Azacitidine 2 mg/kg i.v., Decitabine 1 mg/kg i.v.; for Relative tumor volume (RTV, Mean ± SEM): d15, vehicle 16.5 ± 4.1
Experimental: For subcutaneous model, OCI-AML-3 cells (1×10^6) are injected subcutaneously into the right side of the abdomen of 6- to 8-week-old mice. About 10 days after the cell inoculation, the mice are randomly divided into groups based on the primary tumor size achieving about 100-150 mm^3 of average tumor volume.
The tumor diameter is measured twice using a vernier caliper each week. The computational formula of the tumor volume (TV) is: TV=a×b^2/2. In the computational formula, a and b represent the length and width of the tumor measurement respectively. The computational formula of the relative tumor volume (RTV) is: RTV=VtN1. In the computational formula, V1 is the tumor volume when being grouped and administered, and Vt is the tumor volume when being measured at a certain day after the administration.
The tumor remission rate (%) is derived by dividing the number of SD (Stable Disease), PR (Partial response) and CR (Complete response) appearing in the tumor bearing mice after treatment by the total number of mice in the group×100%.
The synergistic analysis uses the following formula (reference can be made to Gould S E et al., Translational value of mouse models in oncology drug development, Nature medicine, 2015 21, 431-439): synergistic factor=((A/C)×(B/C))/(AB/C); A=RTV value of the A drug alone group; B=RTV value of the B drug alone group; C=RTV value of the vehicle control group, AB=RTV value of the AB combined group (Clarke R., Issues in experimental design and endpoint analysis in the study of experimental cytotoxic agents in vivo in breast cancer and other models[J], Breast Cancer Research & Treatment, 1997, 46 (2-3):255-278).
For subcutaneous model, OCI-AML-3 cells (1×10^6) are injected subcutaneously into the right side of the abdomen of 6- to 8-week-old mice. About 10 days after the cell inoculation, the mice are randomly divided into groups based on the primary tumor size achieving about 100-150 mm^3 of average tumor volume. Compound 2 is administered alone or in combination (50 mg/kg, is taken orally, every other day for 15 days) and Aza (2 mg/kg, intravenous injection each day for 7 days) or Dec (1 mg/kg, intravenous injection each day for 7 days). The tumor volume is measured twice using a vernier caliper each week and is represented by following formula in mm^3: V=0.5a×b^2; in the formula, a and b are the long diameter and short diameter of the tumor respectively. […] RTV=VtN1; wherein V1 and Vt are the average tumor volume on the first day (day 1) in the treatment, and the average tumor volume of a certain time point (day t) respectively.
Azacitidine is administered following 2 mg/kg, caudal vein injection, qd×7d, drug withdrawal 7 days, then qd×2 day regimens for seven days (corresponding to the number 68 regimen in table 7).

[3] = MOLM-13, DEC 100 nM, AZA 3 μM, 48 hours

SMILES	expression of P53 and P21 proteins (MOLM-13 cells; MOLM-13, compound 2 40 nM, RG-7388 40 nM, DEC 100 nM, AZA 3 μM, 48 hours)	γ-H2AX expression (DNA damage) (MOLM-13 cells)	Median survival ([1]; vehicle 16 days)	Prolonged survival ([1]; versus vehicle)	T/C value (%) (d15) [2]	Relative tumor volume (RTV, Mean ± SEM) [2]	expression of DNMT1 (MOLM-13 cells; [3])
Nc1ccn([C@@H]2O[C@H](CO)[C@@H](O)[C@@H]2O)c(=O)n1 [Cytarabine]	significant up-regulation effect on P21	increased expression of γ-H2AX					
Nc1ncn([C@@H]2O[C@H](CO)[C@@H](O)[C@H]2O)c(=O)n1 [Azacitidine]		increased expression of γ-H2AX	24 days	8 days	56.6%	9.3 ± 3.2	almost completely eliminates DNMT1
Nc1ncn([C@H]2C[C@H](O)[C@@H](CO)O2)c(=O)n1 [Decitabine]		increased expression of γ-H2AX			64.9%	10.7 ± 1.7	almost completely eliminates DNMT1
